Results: the CheMixHub ionic liquid set

Test: xn = mol fraction of the nth substance listed

CCCC[N+](CCCC)(CCCC)CCCC.[Cl-] + CC[C@H](C)[C@H](N)C(=O)O
electrical conductivity [S/m], 100 kPa
Settings	313.15 K	323.15 K	333.15 K	343.15 K	353.15 K
x1 = 0.8889	0.0522	0.0655	0.0876	0.1	0.119
x1 = 0.9	0.0263	0.045	0.0615	0.0789	0.105
x1 = 0.9091	0.0364	0.0499	0.072	0.0843	0.111

CCCC[NH3+].O=[N+]([O-])[O-] + CC[NH3+].O=[N+]([O-])[O-]
electrical conductivity [S/m], 101 kPa, frequency 0.00293 MHz
Settings	303.15 K	308.15 K	323.15 K
x2 = 0.25	–	0.88	1.38
x2 = 0.75	1.68	–	–

101 kPa
Settings	viscosity [mPa·s]
303.15 K, x2 = 0.75	42.1
308.15 K, x2 = 0.25	56.1
323.15 K, x2 = 0.25	33.7
333.15 K, x2 = 0.25	25.2
338.15 K, x2 = 0.25	22
338.15 K, x2 = 0.75	15.5
343.15 K, x2 = 0.25	19.4
353.15 K, x2 = 0.25	15.4
353.15 K, x2 = 0.5	13.3

CS(C)=O + CC[NH+](CC)CC.O=P([O-])(O)O
101 kPa, x1 = 1
Settings	viscosity [mPa·s]
298.15 K	1.99
303.15 K	1.8
308.15 K	1.65

CS(C)=O + CC[n+]1ccn(C)c1.COS(=O)(=O)[O-]
100 kPa, x2 = 0
Settings	viscosity [mPa·s]
298.15 K	1.99
303.15 K	1.8
308.15 K	1.65
313.15 K	1.54

CC[n+]1ccn(C)c1.[Cl-] + CC[n+]1ccn(C)c1.F[B-](F)(F)F
Settings	viscosity [mPa·s]
293 K, 101 kPa, x1 = 0.2627	92.4

C[N+]1(CCOCCOCC[N+]2(C)CCCC2)CCCC1.O=S(=O)([N-]S(=O)(=O)C(F)(F)F)C(F)(F)F.O=S(=O)([N-]S(=O)(=O)C(F)(F)F)C(F)(F)F + CC[n+]1ccn(C)c1.N#C[N-]C#N + O=S(=O)([N-]S(=O)(=O)C(F)(F)F)C(F)(F)F.[Li+]
electrical conductivity [S/m], 100 kPa
Settings	298 K	303 K	313 K	323 K	333 K	343 K
x1 = 0.1484, x2 = 0.7091	0.719	0.844	1.2	1.49	1.86	2.18
x1 = 0.1554, x2 = 0.7427	0.972	1.17	1.56	1.97	2.42	2.85

C[N+]1(CCOCCOCC[N+]2(C)CCCC2)CCCC1.O=S(=O)([N-]S(=O)(=O)C(F)(F)F)C(F)(F)F.O=S(=O)([N-]S(=O)(=O)C(F)(F)F)C(F)(F)F + CC[n+]1ccn(C)c1.O=S(=O)([N-]S(=O)(=O)C(F)(F)F)C(F)(F)F + O=S(=O)([N-]S(=O)(=O)C(F)(F)F)C(F)(F)F.[Li+]
100 kPa, x1 = 0.2689, x2 = 0.5819
Settings	electrical conductivity [S/m]
298 K	0.282
303 K	0.341
313 K	0.451
323 K	0.63
333 K	0.82
343 K	1.02

C[NH2+]CCC=C1c2ccccc2CCc2ccccc21.[Cl-] + CC[n+]1ccn(C)c1.[Br-] + O
viscosity [mPa·s], 100 kPa
Settings	288.15 K	298.15 K	308.15 K	318.15 K
x1 = 0.0001985, x2 = 0.0001801	1.149	0.92	0.754	0.638
x1 = 0.0002171, x2 = 0.0007201	1.157	0.927	0.76	0.645
x1 = 0.0002197, x2 = 0.00126	1.164	0.936	0.768	0.653
x1 = 0.0005409, x2 = 0.0001801	1.158	0.928	0.761	0.646
x1 = 0.00056, x2 = 0.001259	1.173	0.944	0.776	0.662
x1 = 0.0005649, x2 = 0.0007199	1.166	0.935	0.768	0.653
x1 = 0.0009071, x2 = 0.0007196	1.176	0.944	0.776	0.66
x1 = 0.0009111, x2 = 0.00018	1.168	0.936	0.769	0.652
x1 = 0.0009287, x2 = 0.001259	1.183	0.952	0.784	0.67
x1 = 0.001275, x2 = 0.001258	1.194	0.962	0.792	0.678
x1 = 0.001279, x2 = 0.0001799	1.179	0.945	0.776	0.659
x1 = 0.001292, x2 = 0.0007194	1.187	0.953	0.784	0.667
x1 = 0.001649, x2 = 0.0007191	1.199	0.963	0.792	0.674
x1 = 0.001657, x2 = 0.0001799	1.19	0.954	0.784	0.666
x1 = 0.001661, x2 = 0.001258	1.206	0.972	0.8	0.686
x1 = 0.002001, x2 = 0.0001798	1.201	0.964	0.792	0.674
x1 = 0.002028, x2 = 0.0007188	1.211	0.974	0.8	0.681
x1 = 0.002029, x2 = 0.001257	1.218	0.982	0.809	0.694
x1 = 0.002358, x2 = 0.0001797	1.213	0.975	0.801	0.682
x1 = 0.002375, x2 = 0.001257	1.231	0.993	0.818	0.702
x1 = 0.002379, x2 = 0.0007186	1.223	0.984	0.808	0.689
x1 = 0.002737, x2 = 0.0001797	1.226	0.986	0.81	0.691
x1 = 0.002745, x2 = 0.001256	1.244	1.004	0.827	0.71
x1 = 0.002757, x2 = 0.0007183	1.236	0.994	0.817	0.698
x1 = 0.00309, x2 = 0.001256	1.258	1.015	0.836	0.718
x1 = 0.003104, x2 = 0.0001796	1.24	0.997	0.819	0.7
x1 = 0.003108, x2 = 0.000718	1.249	1.005	0.826	0.707
x1 = 0.003467, x2 = 0.0001795	1.255	1.008	0.829	0.709
x1 = 0.003489, x2 = 0.0007178	1.263	1.016	0.836	0.716
x1 = 0.00349, x2 = 0.001255	1.272	1.026	0.846	0.725
